From article PMC6353901, “Systematic characterization of position one variants within the lantibiotic nisin” (Scientific Reports, 2019)
Ends that are not written are not given here.

What was measured:
[1] = tested on: NisP; assay: Leader peptide cleavage of pre-nisin variants by NisP (RP-HPLC); assay type: biochemical, Lactococcus lactis; conditions: in vitro cleavage of the leader peptide from purified pre-nisin (variant) by purified secreted NisP, overnight at 8 °C, integration of leader peptide peaks
Text: Step IV concerns leader peptide cleavage and thereby activation of the purified pre-nisin variants. Here, we used the secreted variant of the natural leader peptidase NisP, by which the leader peptide is cleaved in vitro and the cleavage efficiency (%) can be calculated as recently shown. We used an RP-HPLC set-up to monitor product formation, in which the appearance of the leader peptide in the chromatograms was used to determine the concentration of activated nisin (Supplementary Fig. S3). […] The nisin core peptide eluted at a later retention time of approximately 23 min (Supplementary Fig. S3). […] However, in the case of the I1 mutants I1A, I1G, I1T, I1S, I1K, I1R, I1H, I1Q, I1E, I1N and I1D) the formation of a core peptide peak in terms of a new and separated peak in the chromatogram was not observed (Supplementary Fig. S4). Rather, the peaks with a retention time between 18–21 min contained both species, the cleaved and non-cleaved lantibiotic, and can therefore not be deconvoluted for proper determination of the amount of activated nisin. […] The concentration was calculated based on a standard calibration curve (Supplementary Fig. S5), where we precisely determined the concentration of the activated nisin or I1 mutants. We used this concentration determination instead of the colorimetric protein concentration determination as for example Bradford or the BCA-assay since the latter two assays cannot differentiate between the activated and non-activated form of the secreted variants. Since nisin is not active unless the leader is cleaved off, the determination of the area of the leader peak to calculate the amount of the activated lantibiotic directly relates to the antimicrobial activity without need to further purify the peptide after cleavage.
All I1 mutations were subjected to NisP cleavage and most of the variants were cleaved, but a strong influence of the nature of the I1 substitutions with respect to cleavage efficiency was observed (Supplementary Fig. S6). The cleavage efficiency for wild type pre-nisin A was 94.3 ± 1.7% but lower for the mutants I1M, I1L, I1A and I1V (72.3 ± 1.4%, 72.4 ± 1.3%, 81.0 ± 1.8% and 58.1± 2.8%, respectively). […] This holds especially in those cases, where the amino acid at position one was exchanged to a charged amino acid (e.g. I1K 9.2 ± 1.3%; I1E 9.5 ± 0.7%) or contained a bulky hydrophobic side chain (e.g. I1F 12.9 ± 0.8%; I1W 5.7 ± 0.2%; I1Y 22.6 ± 2.3%) (Supplementary Fig. S6). […] Even after an extensive prolongation of the incubation time, no leader peptide peak was detected in the RP-HPLC chromatogram (Supplementary Fig. S4). It is important to stress in this context that the cleavage efficiencies cannot be determined from Tricine-SDS gels (20%). Here, the leader peptide as well as the core peptide would co-migrate, which obviously will falsify the staining results.
Pre-nisin and its variants were expressed and purified as previously described[41],[49],[69]. The purity of pre-nisin and its variants was controlled by Tricine-SDS-PAGE (20%)[70]. The activation of all variants was performed by NisP cleavage overnight at 8 °C. Pre-nisin cleavage and its variants was monitored by RP-HPLC[49],[69].
Pre-nisin and the activated nisin variants were analysed by RP-HPLC (Agilent Technologies 1260 Infinity II) with a LiChrospher WP 300 RP-18 end-capped column and an acetonitrile/water solvent system. The cleavage efficiency and the concentration of active lantibiotic was calculated as described previously[49],[69].

[2] = pre-lantibiotic in contrast to nisin; cited from earlier work
Experimental: As an advantage any lantibiotic can be produced as a pre-lantibiotic. […] Normally, we observed yields for the pre-nisin and its variants of 3–6 mg per liter cell culture supernatant after purificatio ...

| Compound | cleavage efficiency by NisP [1] | pH stability [2] |
| --- | --- | --- |
| C=C(NC(=O)[C@@H](NC(=O)[C@H](Cc1c[nH]cn1)NC(=O)[C@@H](NC(=O)[C@H](CO)NC(=O)[C@@H]1CS[C@@H](C)[C@H]2NC(=O)[C@H](C)NC(=O)[C@H](NC(=O)[C@H](CCCCN)NC(=O)[C@H](CCSC)NC(=O)[C@H](CC(N)=O)NC(=O)[C@@H]3CS[C@@H](C)[C@@H](NC(=O)[C@H](CCCCN)NC(=O)[C@@H]4CS[C@@H](C)[C@@H](NC(=O)[C@@H]5CSC[C@@H](NC(=O)/C(=C/C)NC(=O)[C@@H](N)Cc6ccc(O)cc6)C(=O)N[C@@H]([C@@H](C)CC)C(=O)NC(=C)C(=O)N[C@@H](CC(C)C)C(=O)N5)C(=O)N5CCC[C@H]5C(=O)NCC(=O)N4)C(=O)NCC(=O)N[C@@H](C)C(=O)N[C@@H](CC(C)C)C(=O)N[C@@H](CCSC)C(=O)NCC(=O)N3)[C@H](C)SC[C@H](NC2=O)C(=O)N[C@@H](Cc2c[nH]cn2)C(=O)N1)[C@@H](C)CC)C(C)C)C(=O)N[C@@H](CCCCN)C(=O)O [I1Y] | 22.6 ± 2.3% |  |
| I1P: nisin A variant, position one exchanged to P; pre-peptide not cleaved by NisP (MSTKDFNLDLVSVSKKDSGASPRPTSISLCTPGCKTGALMGCNMKTATCHCSIHVSK; ends and bridges not checked; cysteine pairing not given here; UniProt P13068 1-57, looked up, variant I1P) | not cleaved at all |  |
| wild type pre-nisin A: leader-containing, fully modified precursor of nisin A, not yet activated by NisP (MSTKDFNLDLVSVSKKDSGASPRITSISLCTPGCKTGALMGCNMKTATCHCSIHVSK; thioether (positions not given here); not fully specified (some residues, bridges); also: fully post-translationally modified, places not given here; UniProt P13068 1-57, looked up) [reference compound] | 94.3 ± 1.7% | higher pH stability |
